Experimental data reported in patent publication US20120076899A1, “SHELF STABLE MONATIN SWEETENED BEVERAGE” (Cargill, Incorporated, priority 2009, published 2012).

Experiment: Total indole concentrations following sunlight exposure
Type: physicochemical
Procedure: Synthetic R,R-monatin containing approximately 95.4% R,R-monatin monopotassium salt (dry basis) was obtained from CSIR (Modderfontein, South Africa). About 39 mg/L of this monatin was placed in a buffered solution at a pH of about 2.8-3.0 comprising 9 mM citric acid-trisodium citrate in high purity water and preserved with about 150 mg/L sodium benzoate. To some samples 200 ppm SANMELIN™ AO-3000 enzymatically modified isoquercitrin (EMIQ) (San-Ei Gen F.F.I.—Osaka, Japan) was added. Dissolved O2 levels were either increased by bubbling compressed air or reduced by bubbling N2 (99.9% purity) through these samples until the target O2 concentrations were achieved. Dissolved O2 levels were determined at 20° C. using a FOXY fluorescence quenching O2 analyzer from Ocean Optics (Dunedin, Fla.). Samples were stored in clear, glass ampules (˜10 mL) after O2 adjustment and heat-sealed to create an air-tight enclosure. The samples were then either stored in the dark, or exposed to sunlight. The exposure to sunlight is a much harsher environment for photosensitive compounds than the fluorescent light box because sunlight is many times brighter (˜100,000 Lux vs. ˜2200 Lux) and produces higher-energy, UV radiation. In order to test samples under these alternate conditions, samples were stored outside and exposed to sunlight where temperatures varied from about 5 to about 30 degrees C. and light intensity ranged from 0 at night to about 100,000 Lux on a clear day. Duplicate samples were analyzed weekly for total indole concentrations via the following method.
Total indole (monatin and its intramolecular rearrangement products, monatin lactone and monatin lactam) concentrations were quantified by reversed phase HPLC at 40° C. using an Agilent Zorbax Eclipse C18 column with UV detection at 280 nm by PDA. The compounds were eluted by a gradient mobile phase consisting of (A) 1:1 methanol and acetonitrile (v:v) with 0.3% formic acid and 10 mM ammonium formate and (B) 0.3% formic acid in water with 10 mM ammonium formate. The integrated peak areas for the three (3) compounds were expressed in terms of monatin concentration (mg/L) based on a standard curve prepared for monatin. Thus, the extinction coefficient for monatin was applied to estimate concentrations of monatin lactone and monatin lactam since standards for these compounds were unavailable.

Total Indole Concentration (8.3 mg/L O2, 0 ppm EMIQ, Dark, 0 d): 38.5 mg/L
Total Indole Concentration (8.3 mg/L O2, 0 ppm EMIQ, Dark, 7 d): 39.4 mg/L
Total Indole Concentration (8.3 mg/L O2, 0 ppm EMIQ, Dark, 14 d): 38.0 mg/L
Total Indole Concentration (8.3 mg/L O2, 0 ppm EMIQ, Dark, 21 d): 36.9 mg/L
Total Indole Concentration (8.3 mg/L O2, 0 ppm EMIQ, Dark, 28 d): 39.1 mg/L
Total Indole Concentration (8.3 mg/L O2, 0 ppm EMIQ, Light (sunlight), 0 d): 38.5 mg/L
Total Indole Concentration (8.3 mg/L O2, 0 ppm EMIQ, Light (sunlight), 7 d): 0.0 mg/L
Total Indole Concentration (8.3 mg/L O2, 0 ppm EMIQ, Light (sunlight), 14 d): 0.0 mg/L
Total Indole Concentration (8.3 mg/L O2, 0 ppm EMIQ, Light (sunlight), 21 d): 0.0 mg/L
Total Indole Concentration (8.3 mg/L O2, 0 ppm EMIQ, Light (sunlight), 28 d): 0.0 mg/L
Total Indole Concentration (<0.5 mg/L O2, 0 ppm EMIQ, Light (sunlight), 0 d): 38.5 mg/L
Total Indole Concentration (<0.5 mg/L O2, 0 ppm EMIQ, Light (sunlight), 7 d): 39.7 mg/L
Total Indole Concentration (<0.5 mg/L O2, 0 ppm EMIQ, Light (sunlight), 14 d): 34.4 mg/L
Total Indole Concentration (<0.5 mg/L O2, 0 ppm EMIQ, Light (sunlight), 21 d): 32.0 mg/L
Total Indole Concentration (<0.5 mg/L O2, 0 ppm EMIQ, Light (sunlight), 28 d): 30.6 mg/L
Total Indole Concentration (<0.5 mg/L O2, 200 ppm EMIQ, Light (sunlight), 0 d): 38.5 mg/L
Total Indole Concentration (<0.5 mg/L O2, 200 ppm EMIQ, Light (sunlight), 7 d): 36.0 mg/L
Total Indole Concentration (<0.5 mg/L O2, 200 ppm EMIQ, Light (sunlight), 14 d): 38.4 mg/L
Total Indole Concentration (<0.5 mg/L O2, 200 ppm EMIQ, Light (sunlight), 21 d): 32.8 mg/L
Total Indole Concentration (<0.5 mg/L O2, 200 ppm EMIQ, Light (sunlight), 28 d): 36.7 mg/L
SMILES: NC(CC(O)(Cc1c[nH]c2ccccc12)C(=O)O)C(=O)O (centres unmarked) [R,R-monatin, 2-hydroxy-2-(indol-3-ylmethyl)-4-aminoglutaric acid]
